We go through one molecule from patent US10927075B2, “Compositions and methods relating to the treatment of cancer, autoimmune disease, and neurodegenerative disease” (THE JACKSON LABORATORY, priority 2014, dated 2021).

The subject of one data set is CH12-F3 cells. Put plainly: Radiosensitivity (viability after ionizing irradiation). The following applies: 50 nM, 100 nM, or 150 nM; 0 or 2.5Gy. In kind it is cell-based, mouse. How it is done: FIG. 13A depicts a viability analysis of C-1523-treated CH12-F3 cells 24 h after 0 or 2.5 Gy IR. Data are normalized to the fraction of cells for each IR dose that received DMSO vehicle only; error bars represent the SEM for three independent experiments. FIG. 13B depicts detection of RAD51 by immunofluorescence in primary mouse B cells 24 h after 0 or 2.5 Gy IR and treatment with C-1523 (100 nM) or vehicle. RAD51 staining is in red, nuclear DNA (DAPI-stained) is in blue. Scale bar: 10 μM. FIG. 13C depicts the quantification of cells with nuclear RAD51 (RAD51+) from FIG. 13B. Error bars represent the SEM for three independent experiments. FIG. 13D depicts the quantitation of RAD51 expression in nuclear and cytoplasmic fractions as determined by Western Blot. Values represent the average of three independent experiments and error bars are the SEM. FIG. 13E depicts the immunofluorescent detection of NF-κB localization in primary murine B cells. […] FIG. 13F depicts the quantitation of nuclear NF-κB staining from FIG. 13E. […]
C-1523 disrupts RAD51 nucleocytoplasmic distribution and damage induced relocalization. To assess the DNA repair inhibitory activity of C-1523, radiosensitivity was measured in the mouse leukemia cell line, CH12-F3, with or without C-1523. […] Cells were allowed to recover in culture in the presence of C-1523 (or vehicle control) and viable cells were quantified. […]

Data set [1] concerns primary, AID expressing B-cells. Put plainly: Live cell imaging of nuclei fragmentation. In kind it is cell-based, mice. The following applies: 100 nM, individual cell imaged at 20 minute intervals. How it is done:
FIG. 22 depicts live cell imaging of primary, AID expressing B-cells treated with 100 nM C-1523. Histone H2B-EGFP transgenic mice were used as a source of B-cells to facilitate imaging of chromatin. The top panel depicts an individual cell imaged at 20 minute intervals for 460 minutes. Images show chromosomal fragmentation commencing at 120 minutes. Data in the bottom panels depict quantification of live cell imaging depicting the fraction of cells that commence fragmentation at each time point (bottom left panel) and the cumulative fraction of fragmented nuclei (bottom right panel).
AID+/+ or AID−/− B-cells were cultured with 100 nM and cell cycle profiles were determined by propidium iodide staining and flow cyotmetry at intervals up to 96 hours. Non-activated (CD40) cells were used as a negative control; activated cells treated with the microtuble poison colcemid (ACT+colcemid) were used as a positive control. Nuclei fragmentation analysis of primary, AID expressing B-cells treated with 100 nM C-1523 was conducted (FIG. 22).

In another data set the test system is B cells. Description: Western Blot of apoptotic markers PARP-1 and caspase-9. It is filed as cell-based. The procedure:
Cell death mediated by C-1523 is p53-dependent. It was hypothesized that AID-dependent cytotoxicity induced by C-1523 would be associated with p53-mediated apoptosis. To test the importance of p53, a central regulator of cellular responses to DNA damage, viability was measured in mouse primary B-cells from Trp53+/+ versus Trp53−/− mice following exposure to C-1523. […] Caspase 3 activation, a marker of apoptotic cell death, was measured in C-1523 treated B-cells. B-cells were stained with an antibody that recognizes cleaved, activated caspase-3 (AC3) and the number of AC3-positive cells was measured via immunofluorescence microscopy. Following 10 Gy of ionizing irradiation Trp53+/+(WT), but not Trp53−/− cultures show a >30-fold increase in the percentage of AC3+ cells, confirming Trp53 dependent apoptosis in these cells after DNA damage. […] In order to more completely rule out apoptosis as the mode of cell death following C-1523 treatment in B cells, the expression of other common markers of apoptotic induction was examined via Western Blot.
(Immunoblotting shows a protein as a band on a membrane.)

The test system of data set [2] is AID-expressing mouse B-lymphocytes.
A further data set deals with HEK293T cells. Description: Sister chromatid exchange assay. In kind it is cell-based, human. As to conditions: 100 nM, relative to DMSO vehicle. The text has this:
C-1523 inhibits Sister Chromatid Exchange. […] To directly measure the effect of C-1523 on RAD51-mediated homologous recombination, we measured sister chromatid exchange and HR repair of an endonuclease generated DSB. Sister chromatid exchange (SCE) is a RAD51-mediated homologous recombination event between replicated sister chromatids in replicative or post-replicative cells, and reflects repair of replication-associated DNA damage. SCE can be measured following differential chromatid labeling by BrdU incorporation (Latt and Schreck, 1980). SCE is known to occur at a high rate in HEK293T cells, with approximately 0.25 spontaneously occurring exchange events per chromosome (FIGS. 14A, 14C) (Londono-Vallejo et al., 2004).
Propidium Iodide and flow cytometry.

For data set [3], the system named is AID−/− or p53−/− primary mouse B cells. Put plainly: Micronuclei assay. In kind it is cell-based. The following applies: 100 nM, 3 days.
Data set [4] has as its system Primary mouse B cells (WT). Description: Micronuclei assay. It is filed as cell-based. As to conditions: 100 nM, WT cells, 3 days.

Consider `CC(=O)Nc1ccc(/C=C/c2ccc(NC(=S)NC(C)C)cc2S(=O)(=O)O)c(S(=O)(=O)O)c1` [C-1523, (E)-5-acetamido-2-(4-(3-isopropylthioureido)-2-sulfonatostyryl)benzenesulfonate], for which the “sensitivity to ionizing irradiation” value in the data set with CH12-F3 cells is on record as “sensitivity to ionizing irradiation at every concentration tested”. In data set [1], the “time at which chromosomal fragmentation commences” value amounted to 120 min. Also, under “in vivo”, the “acute side effects relative to DIDS” value is listed as “no increased acute side effects” and the acute toxicity entry is reported as “almost no acute toxicity”. In addition, the “tolerance to prolonged drug exposure” value (single and multiple dose) is “excellent tolerance”. Also, the “cleavage of PARP-1 or caspase-9” value in the data set with B cells (2 days following activation) is reported as “no cleavage of PARP-1 or caspase-9 was observed”. Besides, the “cleaved PARP-1 and caspase-9” value with B cells (3 days) is recorded as “not due to C-1523 treatment specifically”. Also, in data set [2], the “concentration eliciting AID-specific cytotoxicity” value turned out to be 100 nM and the “rank among DIDS analogs tested” value is given as “most potent DIDS analog tested”. Also, the “AID+:AID− activity score: effect in AID+ cells versus corresponding AID- cells” value in data set [2] (10 μM) is on record as “roughly 6 fold”. The “effectiveness relative to DIDS” value in data set [2] (Example 3 summary) amounted to 1000 times. Besides, in data set [2] (dose response data), the “potency relative to DIDS” value is on record as “at least 1500 times”. The “median number of SCE events per chromosome” value in the data set with HEK293T cells was “significantly reduced”. In addition, the fraction of micronuclei result in data set [3] was “no increase in the fraction of micronuclei”. For the same molecule, the “increase in micronuclei compared to DMSO” value in data set [4] came out at 9 fold.
